In patent publication US20190134000A1, “COMPOUNDS TO PROMOTE NORMAL PROCESSING OF APP” (Buck Institute for Research on Aging, priority 2016, published 2019):
≈ marks a conversion by molar mass, not a printed value. Entries after “also recorded” stand apart in the source; their conditions may differ. Like-named read-outs stand apart in the source and are kept apart here.

Experiments:
in vitro = assay: in vitro
Description: The second batch of C41 was tested for plasma protein binding, ADME-tox screening (microsomal intrinsic clearance), and ADME-tox screening (CYP inhibition screen). PK in rats was determined to determine a dose of non-GLP Pharm-Tox screening. Additionally, acute toxicity in rats (pre-subchronic toxicity) and non-GLP subchronic toxicity was determined.

CYP3A4 = CYP3A4 (Homo sapiens, UniProt P08684); assay: CYP inhibition screen CYP3A4; type: in vitro ADME; details: human
CYP3A4, sequence (P08684 whole entry): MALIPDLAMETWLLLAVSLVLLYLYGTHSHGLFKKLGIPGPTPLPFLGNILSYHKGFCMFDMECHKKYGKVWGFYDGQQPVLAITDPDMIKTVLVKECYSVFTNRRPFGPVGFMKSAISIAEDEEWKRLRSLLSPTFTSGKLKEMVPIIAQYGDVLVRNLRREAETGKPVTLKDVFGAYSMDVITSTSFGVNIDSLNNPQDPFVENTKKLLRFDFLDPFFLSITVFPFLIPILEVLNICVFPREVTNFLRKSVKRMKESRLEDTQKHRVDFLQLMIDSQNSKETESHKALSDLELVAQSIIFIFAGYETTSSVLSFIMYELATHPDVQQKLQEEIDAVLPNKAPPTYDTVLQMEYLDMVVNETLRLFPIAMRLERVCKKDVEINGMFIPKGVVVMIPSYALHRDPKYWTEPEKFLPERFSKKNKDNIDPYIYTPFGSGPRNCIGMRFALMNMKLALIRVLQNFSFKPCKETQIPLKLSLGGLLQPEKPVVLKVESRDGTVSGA

[1] = test system: sAPPα, Aβ1-42 in CHO-7W cells; assay: Secondary screen, sAPPα and Aβ in CHO-7W cells; type: cell-based
From the text: (§1) Compound C41 was initially identified by screening a library of compounds in a series of steps. First compounds were screened in a primary screen to determine the effect on sAPPα in SH-SYSY cells (see, e.g., FIG. 4). Compounds that elicited an increase in sAPPα of at least 10% were subjected to a secondary screen in CHO-7W cells for their effect on sAPPα and Aβ (see, e.g., FIG. 5).

AD model mouse = assay: In vivo study of C41 and F03 in an AD model mouse
From the text: Panel A: Novel object preference; Panel B: Novel location preference; Panel C: sAPPα.
Panel A: sAPPβ; Panel B: the sAPPα/sAPPβ ratio.
Compounds meeting the initial screening criteria were then subjected to in vivo testing.

CYP1A2 = target: T1, CYP1A2 (Homo sapiens, UniProt P05177); assay: CYP inhibition screen CYP1A2; type: in vitro ADME; details: human, read-out: CYP1A2 inhibition
T1 sequence (P05177 1-516): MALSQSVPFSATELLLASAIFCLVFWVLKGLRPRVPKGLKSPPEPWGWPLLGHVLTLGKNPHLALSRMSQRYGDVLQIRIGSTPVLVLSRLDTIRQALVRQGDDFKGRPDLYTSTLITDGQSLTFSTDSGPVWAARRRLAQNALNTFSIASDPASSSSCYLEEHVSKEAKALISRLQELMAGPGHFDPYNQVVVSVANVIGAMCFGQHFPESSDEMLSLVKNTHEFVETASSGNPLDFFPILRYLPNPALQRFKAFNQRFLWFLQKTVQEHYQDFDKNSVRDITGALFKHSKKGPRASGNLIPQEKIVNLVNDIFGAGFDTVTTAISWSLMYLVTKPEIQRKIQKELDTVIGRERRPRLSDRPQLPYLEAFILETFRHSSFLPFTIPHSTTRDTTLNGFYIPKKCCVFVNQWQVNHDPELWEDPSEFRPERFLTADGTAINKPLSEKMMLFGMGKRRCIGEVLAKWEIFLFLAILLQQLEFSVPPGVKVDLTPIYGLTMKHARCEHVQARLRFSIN

AD mouse model = assay: Synaptic load, synaptophysin labeling of hippocampus; type: in vivo
Description: FIG. 16 illustrates mechanistic confirmation studies for determination of synaptic load.
Mechanistic confirmation studies for determination of synaptic load were performed using antibody-labeling of synaptophysin with a green fluorescent tag. […] The improvements in NLR and NOR may be correlated to the restoration of synaptic load, increases in sAPPα or the sAPPα/sAPPβ ratio; increases in the sAPPα/Aβ1-42 ratio; decreases in the p-tau/tau ratio, and/or decreases in APPneo (c-terminal cleavage).

APP = APP (Homo sapiens, UniProt P05067); assay: Target binding APP
APP, sequence (P05067 18-770, species assumed): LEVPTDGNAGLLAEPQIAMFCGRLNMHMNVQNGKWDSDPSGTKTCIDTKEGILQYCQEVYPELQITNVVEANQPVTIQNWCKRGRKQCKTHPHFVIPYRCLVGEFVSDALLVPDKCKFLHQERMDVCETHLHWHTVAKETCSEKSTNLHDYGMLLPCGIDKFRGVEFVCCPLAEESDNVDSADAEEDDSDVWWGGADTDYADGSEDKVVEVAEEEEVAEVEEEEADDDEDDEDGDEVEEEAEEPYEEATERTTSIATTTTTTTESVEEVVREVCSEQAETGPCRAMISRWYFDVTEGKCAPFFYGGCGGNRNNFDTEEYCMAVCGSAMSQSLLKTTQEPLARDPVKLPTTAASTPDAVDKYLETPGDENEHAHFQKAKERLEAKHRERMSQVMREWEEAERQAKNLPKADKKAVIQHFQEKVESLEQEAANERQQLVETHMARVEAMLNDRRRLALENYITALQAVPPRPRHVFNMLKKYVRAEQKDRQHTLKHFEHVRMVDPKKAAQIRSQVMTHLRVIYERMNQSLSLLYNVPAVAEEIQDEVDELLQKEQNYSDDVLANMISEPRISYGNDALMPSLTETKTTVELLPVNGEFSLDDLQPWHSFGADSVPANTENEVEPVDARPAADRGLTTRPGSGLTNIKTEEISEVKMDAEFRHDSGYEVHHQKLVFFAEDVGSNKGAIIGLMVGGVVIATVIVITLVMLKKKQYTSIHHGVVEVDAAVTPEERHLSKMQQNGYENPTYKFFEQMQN

α7 = α7 (Homo sapiens, UniProt P36544); assay: Target binding α7
α7, sequence (P36544 23-502): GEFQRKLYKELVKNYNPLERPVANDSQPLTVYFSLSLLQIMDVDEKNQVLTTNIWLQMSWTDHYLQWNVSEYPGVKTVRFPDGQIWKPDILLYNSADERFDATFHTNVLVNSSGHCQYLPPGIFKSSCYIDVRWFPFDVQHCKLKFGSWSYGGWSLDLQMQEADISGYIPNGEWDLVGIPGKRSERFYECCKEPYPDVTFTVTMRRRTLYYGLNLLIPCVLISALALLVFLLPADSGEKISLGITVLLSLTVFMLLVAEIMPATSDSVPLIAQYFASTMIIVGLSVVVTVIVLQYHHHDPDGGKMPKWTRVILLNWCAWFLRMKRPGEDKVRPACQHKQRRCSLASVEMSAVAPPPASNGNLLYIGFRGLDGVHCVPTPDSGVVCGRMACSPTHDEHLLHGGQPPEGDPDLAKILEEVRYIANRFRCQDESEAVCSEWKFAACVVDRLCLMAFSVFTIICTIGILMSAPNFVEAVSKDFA

sAPPα in SH-SY5Y cells = assay: Primary screen, effect on sAPPα in SH-SY5Y cells (AlphaLISA); type: cell-based, human
From the text: as §1

CYP2D6 = CYP2D6 (Homo sapiens, UniProt P10635); assay: CYP inhibition screen CYP2D6; type: in vitro ADME; details: human, read-out: CYP2D6 inhibition
CYP2D6, sequence (P10635 whole entry): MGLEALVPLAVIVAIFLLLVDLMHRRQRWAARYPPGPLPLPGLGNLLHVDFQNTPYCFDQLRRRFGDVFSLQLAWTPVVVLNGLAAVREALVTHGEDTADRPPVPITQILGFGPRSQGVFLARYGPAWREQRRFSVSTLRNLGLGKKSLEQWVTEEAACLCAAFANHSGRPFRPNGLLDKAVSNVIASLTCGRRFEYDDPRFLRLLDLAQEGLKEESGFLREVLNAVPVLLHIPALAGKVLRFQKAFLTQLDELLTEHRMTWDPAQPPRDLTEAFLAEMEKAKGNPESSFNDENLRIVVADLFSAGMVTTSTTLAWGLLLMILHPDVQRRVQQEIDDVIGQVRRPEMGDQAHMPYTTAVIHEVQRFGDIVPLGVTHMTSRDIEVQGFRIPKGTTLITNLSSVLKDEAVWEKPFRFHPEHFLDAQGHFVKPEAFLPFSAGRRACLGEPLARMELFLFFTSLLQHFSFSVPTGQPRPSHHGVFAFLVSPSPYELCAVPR

5-HT3 = target: T2, 5-HT3 (Homo sapiens, UniProt P46098); assay: Target binding 5-HT3; details: target binding
T2 sequence (P46098 24-478): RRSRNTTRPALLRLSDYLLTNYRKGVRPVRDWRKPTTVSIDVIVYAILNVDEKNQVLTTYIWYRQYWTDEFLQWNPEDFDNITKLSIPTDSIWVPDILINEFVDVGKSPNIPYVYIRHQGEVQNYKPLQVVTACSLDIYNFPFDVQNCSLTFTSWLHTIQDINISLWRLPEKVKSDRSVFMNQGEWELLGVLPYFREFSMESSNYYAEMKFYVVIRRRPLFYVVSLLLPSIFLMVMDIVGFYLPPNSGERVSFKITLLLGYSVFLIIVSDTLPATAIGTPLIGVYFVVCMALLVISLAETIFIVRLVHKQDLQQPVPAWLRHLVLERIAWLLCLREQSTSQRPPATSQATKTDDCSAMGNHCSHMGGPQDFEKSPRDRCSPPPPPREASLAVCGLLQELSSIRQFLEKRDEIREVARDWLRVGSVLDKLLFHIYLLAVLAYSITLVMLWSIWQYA

CYP2C9 = CYP2C9 (Homo sapiens, UniProt P11712); assay: CYP inhibition screen CYP2C9; type: in vitro ADME; details: human, read-out: CYP2C9 inhibition
CYP2C9, sequence (P11712 whole entry): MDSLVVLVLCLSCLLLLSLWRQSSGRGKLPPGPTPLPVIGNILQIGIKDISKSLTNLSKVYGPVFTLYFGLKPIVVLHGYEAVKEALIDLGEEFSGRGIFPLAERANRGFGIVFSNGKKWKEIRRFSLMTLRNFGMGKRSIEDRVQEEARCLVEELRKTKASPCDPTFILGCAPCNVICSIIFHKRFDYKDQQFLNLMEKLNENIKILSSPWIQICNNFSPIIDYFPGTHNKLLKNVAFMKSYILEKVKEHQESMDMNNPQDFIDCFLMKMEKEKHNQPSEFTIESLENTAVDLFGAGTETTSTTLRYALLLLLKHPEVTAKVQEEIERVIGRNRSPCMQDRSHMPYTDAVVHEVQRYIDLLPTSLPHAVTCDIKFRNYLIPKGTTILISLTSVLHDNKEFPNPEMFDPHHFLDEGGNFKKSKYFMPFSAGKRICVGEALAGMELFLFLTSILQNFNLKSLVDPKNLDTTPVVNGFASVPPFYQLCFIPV

CYP2C19 = CYP2C19 (Homo sapiens, UniProt P33261); assay: CYP inhibition screen CYP2C19; type: in vitro ADME; details: human, read-out: CYP2C19 inhibition
CYP2C19, sequence (P33261 whole entry): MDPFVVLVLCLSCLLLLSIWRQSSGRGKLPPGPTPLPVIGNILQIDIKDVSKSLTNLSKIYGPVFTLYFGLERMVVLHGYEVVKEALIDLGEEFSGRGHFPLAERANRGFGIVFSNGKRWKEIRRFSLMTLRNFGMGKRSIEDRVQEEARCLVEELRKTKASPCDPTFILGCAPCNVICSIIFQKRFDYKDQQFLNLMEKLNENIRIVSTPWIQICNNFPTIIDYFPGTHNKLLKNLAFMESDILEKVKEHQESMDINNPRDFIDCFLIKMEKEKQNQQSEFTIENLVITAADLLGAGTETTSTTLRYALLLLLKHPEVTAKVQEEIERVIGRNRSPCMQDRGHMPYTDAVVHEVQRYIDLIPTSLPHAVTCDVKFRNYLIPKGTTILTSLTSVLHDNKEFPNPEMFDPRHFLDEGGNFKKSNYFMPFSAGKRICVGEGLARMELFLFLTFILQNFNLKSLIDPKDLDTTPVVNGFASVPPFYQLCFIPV

[2] = reported; cited from earlier work
[3] = dog, microsomes, NADPH-Dependent CLint
[4] = dog, microsomes, NADPH-Free CLint
[5] = rat, microsomes, NADPH-Dependent CLint
[6] = rat, microsomes, NADPH-Free CLint
[7] = midazolam, read-out: CYP3A4 midazolam inhibition
[8] = testosterone, read-out: CYP3A4 testosterone inhibition

With `CC(=O)CC(c1ccccc1)c1c(O)c2ccccc2oc1=O` (centres unmarked) [warfarin] the microsomal CLint at 1 μM (in vitro; [3]) was under 9.6 µL/min/mg, the microsomal CLint at 1 μM (in vitro; [4]) was under 9.6 µL/min/mg and the recovery (in vitro; human) was 99.7%. The microsomal CLint at 1 μM (in vitro; human, microsomes) was under 9.6 µL/min/mg, the “NADPH-Free CLint” value (in vitro; human, microsomes, 1 μM) was under 9.6 µL/min/mg and the microsomal CLint at 1 μM (in vitro; [5]) was under 9.6 µL/min/mg. For the same compound, the microsomal CLint at 1 μM (in vitro; [6]) was under 9.6 µL/min/mg.

For `CN1[C@@H]2CC[C@H]1C[C@@H](OC(=O)c1c[nH]c3ccccc13)C2` [Compound F03, tropisetron, reference compound], the microsomal CLint at 1 μM (in vitro; [3]) was 43.5 µL/min/mg, the half-life at 1 μM (in vitro; dog, microsomes, NADPH-Dependent T1/2) was 0.885 h and the microsomal CLint at 1 μM (in vitro; [4]) was under 9.6 µL/min/mg. For the same compound, the half-life at 1 μM (in vitro; dog, microsomes, NADPH-Free T1/2) was over 4 h, the half-life at 1 μM (in vitro; human, microsomes) was over 4 h and the microsomal CLint at 1 μM (in vitro; human, microsomes) was under 9.6 µL/min/mg. For the same compound, the “NADPH-Free CLint” value (in vitro; human, microsomes, 1 μM) was under 9.6 µL/min/mg, the “NADPH-Free T1/2” value (in vitro; human, microsomes, 1 μM) was over 4 h and the microsomal CLint at 1 μM (in vitro; [5]) was 367 µL/min/mg. For the same compound, the half-life at 1 μM (in vitro; rat, microsomes, NADPH-Dependent T1/2) was 0.105 h, the microsomal CLint at 1 μM (in vitro; [6]) was under 9.6 µL/min/mg and the half-life at 1 μM (in vitro; rat, microsomes, NADPH-Free T1/2) was over 4 h. It also gave an inhibition at 10 µM (CYP3A4; [7]) of 0%, an inhibition at 10 µM (CYP3A4; [8]) of 0.63% and an inhibition at 30 µM (CYP3A4; [7]) of 6.6%. The inhibition at 30 µM (CYP3A4; [8]) was 10.5%, the “Secondary Screen (CHO-7W) sAPPα” value ([1]; ↑ increase) was “↑>10%” and the “Secondary Screen (CHO-7W) sAppα/Aβ” value ([1]; ↑ increase of ratio) was “↑>30%”. For the same compound, the “Secondary Screen (CHO-7W) Aβ1-42” value ([1]; ↓ decrease) was “↓>10%”, the “Aβ40/42 ratio in vivo” value (AD model mouse) was “not changed” and the sAPPα in vivo (AD model mouse) was “increased significantly”. The “sAPPα/Aβ1-42 ratio in vivo” value (AD model mouse) was “not increased”, the inhibition at 10 µM (CYP1A2; 10 μM) was 1% and the inhibition at 30 µM (CYP1A2; 30 μM) was 1%. The “synaptic load / synaptic density in hippocampus” value (AD mouse model) was “restore synaptic density; also recorded: restored synaptic load”, the “Target APP” value (APP) was 1 to 10 µM and the “Target α7” value (α7) was 450 nM. For the same compound, the “Primary Screen (SH-SY5Y) sAPPα” value (sAPPα in SH-SY5Y cells; ↑ increase) was “↑>10%”, the inhibition at 10 µM (CYP2D6; 10 μM) was 17.4% and the inhibition at 30 µM (CYP2D6; 30 μM) was 38%. For the same compound, the “Target 5-HT3” value (5-HT3) was 3 nM, the inhibition at 10 µM (CYP2C9; 10 μM) was 15.9% and the inhibition at 30 µM (CYP2C9; 30 μM) was 23.3%. The inhibition at 10 µM (CYP2C19; 10 μM) was 6.4%, the inhibition at 30 µM (CYP2C19; 30 μM) was 0% and the solubility (Solubility in water) was 100 mM (≈ 28.4 mg/mL). The Plasma binding [2] was 70%.

For `CC(C)NCC(O)COc1cccc2ccccc12` (centres unmarked) [propranolol, reference compound], the “Mean Plasma Fraction Bound” value (in vitro; human, plasma) was 81.6% and the fraction unbound (in vitro; human, plasma) was 0.184.

With `CN1C2CC[C@H]1C[C@@H](OC(=O)c1c[nH]c3cc(F)ccc13)C2.Cl` [C41 HCl, (1R,3R,5S)-8-methyl-8-azabicyclo[3.2.1]octan-3-yl 6-fluoro-1H-indole-3-carboxylate hydrochloride] the “effect on sAPPα in SH-SY5Y cells” value (sAPPα in SH-SY5Y cells; 1 μm, 24 hours) was “increase sAPPα similar to C41 (first batch) and to F03”.
